Here are results for one compound from patent publication EP4364731A1, “COMPOSITION FOR USE IN THE TREATMENT OF DISRUPTED NASAL MUCOSA AND EPITHELIAL BARRIER” (Laboratorios Cinfa, S.A., priority 2022, dated 2024).

Holding throughout (assay type): cell-based
Data set [1] deals with Human Nasal Epithelial Cells (HNEpC). Description: Re-epithelialization (scratch) assay. To be noted: 0.5% compound separately (FIG. 2). As to the method:
(§1) In vitro studies were performed to assess the proliferation and re-epithelialization activity of compositions containing hyaluronic acid and xylitol as individual components and in combination. Three independent trials were carried out with 4 replicates per experimental trial.
(§2) Solutions in basal culture medium of hyaluronic acid (HA, White powder,CAS number 9067-32-7, MW: 1000-1400 kDa, Givaudan France SAS xylitol (Xyl,. White crystalline powder, CAS number 87-99-0 Roquette) or combinations of hyaluronic acid and xylitol at different concentrations were tested.
Human Nasal Epithelial Cells (HNEpC) from a primary cell line isolated from normal human nasal mucosa were purchased form PromoCell (ref: C-12620). The cell line was maintained in supplemented culture medium according to the supplier guidelines and was routinely grown as a monolayer in tissue culture grade flasks. When cells exceeded 70% confluence (but less than 90%), they were sub-cultured on new culture flasks. […]
Cells were seeded in both sides of inserts attached on culture wells and were incubated in supplemented medium at 37 °C and 5% CO2. […] The area of the scratch was calculated using ImageJ software. The percentage of scratch closure (re-epithelialization percentage) was calculated relative to the negative control, a condition in which cells were not treated with any product. […]

The nature of a further data set: in vitro. To be noted: human, nasal epithelial cells. From the text:
Regarding hyaluronic acid, insolubility at concentrations above 0.5% w/v prevented the testing of higher concentrations. As for xylitol, a high in vitro cytotoxicity at concentrations above 0.5% w/v prevented the testing of higher concentrations.

Data set [2] deals with Human Nasal Epithelial Cells (HNEpC). Nature of the data set: Proliferation assay (MTT). The conditions noted are these: Epithelial cell, 24 hours. How it is done:
as §1, §2
Human Nasal Epithelial Cells (HNEpC) from a primary cell line isolated from normal human nasal mucosa were purchased form PromoCell (ref: C-12620). The cell line was maintained in supplemented culture medium according to the supplier guidelines and was routinely grown as a monolayer in tissue culture grade flasks. When cells exceeded 70% confluence (but less than 90%), they were sub-cultured on new culture flasks. All the cell cultures were maintained in standard cell culture conditions (37 °C, 5% CO2 and 95% humidity).
MTT, a yellow tetrazole, is reduced to purple formazan by cell metabolic activity. This reduction is proportional to the amount of living cells in the well and, therefore, to cell proliferation over time. Cells cultured in 96-well plates were treated with the test compositions for 24 hours (37 °C, 5% CO2). After 24 hours of incubation, cells were washed with PBS and stained with MTT solution and incubated at 37 °C for 2 hours. At the end of this incubation period, the staining medium was removed and 100 µL of DMSO/well were added to solubilize the colored precipitate. The absorbance was read at 540 nm in the spectrophotometer plate reader. The cell proliferation percentage was calculated relative to the negative control, a condition in which cells were not treated with any product. Cells with treatments and negative control were cultured with basal medium. As positive control, cells were cultured in supplemented medium. The % of cell proliferation was calculated by the following formula: • % proliferation = AbT/AbC x 100 • AbT = absorbance at 540 nm after 24 hours of treatment • AbC = absorbance at 540 nm of the negative control (24 hours of cells growing in basal medium)

Turning to `OC[C@@H](O)[C@H](O)[C@@H](O)CO` [Xyl, xylitol], the “scratch closure after 72 hours of exposure” value in data set [1] is listed as “did not”. This compound also yielded an MCC in “in vitro” above 5000 µg/mL. Moreover, in data set [2] (0.125% compound alone, read-out: increase of cell proliferation in relation to negative control), the activation at 0.125 % amounted to 0%. For the same compound, in data set [2] (0.5% compound alone, read-out: increase of cell proliferation in relation to negative control), the activation at 0.5 % stood at 0%. For the same compound, the activity at 0.125 % strength in data set [2] (basal medium, relative to negative control (100%), compound concentration 0.125 %w/v) amounted to 99.9%. Besides, the activity at 0.5 % strength in data set [2] (basal medium, relative to negative control (100%), compound concentration 0.5 %w/v) worked out at 98.2%.
